Results from PMC5632533, “Mechanisms of action and in vivo antibacterial efficacy assessment of five novel hybrid peptides derived from Indolicidin and Ranalexin against Streptococcus pneumoniae” (PeerJ, 2017).

System: S. pneumoniae (highly virulent strain)
Assay: In vivo antipneumococcal activity, pneumococcal bacteremia (lethal systemic infection) model
Set-up: species or system mice
Details: for survival of infected mice up to seven days post-infection: 1.5 × 10^2 CFU/mouse IP, 10 mice; for survival of infected mice, treatment via SC and IN routes: up to seven days post-infection
Method: Two pneumococcal infection models developed previously in our lab ([Le et al., 2015]) were used to assess the therapeutic efficacy of peptides in vivo. The systemic infection model was used to mimic pneumococcal bacteremia in humans and the pneumococcal pneumonia model was used to mimic pneumococcal pneumonia in humans. A highly virulent strain was used in both the models. The bacterial isolate was grown overnight on Columbia agar with 5% sheep blood at 37 °C under 5% CO2. The bacterial suspension was adjusted to OD625 0.08-0.1 (1 ∼ 2 × 10^8 CFU/ml). Mice tested for lethal systemic infection were inoculated with 1.5 × 10^2 CFU/mouse (100 μl) via IP route. Mice used to assess the Pneumococcal pneumonia model were inoculated with pneumococcal cells of 5 × 10^3 CFU/mouse (50 μl) via the intrathoracic route.
After 1 hr of inoculation, Mice receiving treatment were randomized and divided into six groups. RN7-IN10 and RN7-IN8 were tested at three different doses for each (5 mg/kg, 10 mg/kg and 20 mg/kg) using a group of 10 mice. Graded doses of ceftriaxone (5 mg/kg, 10 mg/kg, […], 40 mg/kg and 80 mg/kg) were also tested to assess the in vivo antibacterial activity of this antibiotic. Only mice injected with PBS were served as uninfected control. Mice injected with bacterial inoculum were used as untreated control group and given sterile distilled water only. Survival of mice was documented for seven days or until death. After seven days, the experiment was ended, the blood and homogenates of the five major organs (kidney, brain, spleen, liver and lung) of the surviving mice were plated on Columbia agar with 5% sheep blood, to detect the presence of pneumococcal cells. […]

[1] = treatment IP 5 mg/kg (peptides at 1 h, 12 h, 24 h post-infection)
[2] = treatment IP 10 mg/kg (peptides at 1 h, 12 h, 24 h post-infection)
[3] = treatment IP 20 mg/kg (peptides at 1 h, 12 h, 24 h post-infection)

Row | Substance | survival of infected mice up to seven days post-infection [1] | survival of infected mice up to seven days post-infection [2] [%] | survival of infected mice up to seven days post-infection [3] [%] | survival of infected mice, treatment via SC and IN routes
1 | FLGGLIKWKWPWWPWRR-NH2 [RN7-IN10, hybrid peptide of ranalexin (residues 1-7) and indolicidin (residues 4-13)] | failed to treat any of the infected mice | 10 | 30 | none of the mice survived
2 | FLGGLIKWPWWPWRR-NH2 [RN7-IN8, hybrid peptide of ranalexin (residues 1-7) and indolicidin (residues 6-13)] | failed to treat any of the infected mice | 30 | 50 | none of the mice survived
